Format in all cases: cell-based, human
Data set [1] deals with MMP-9. The experiment in a line: Gelatin zymography of MMP-9 gelatinolytic activity in conditioned medium of PMA-stimulated HT1080 cells. The note with it: 500 μg/mL CGlc, HT1080 cells stimulated with PMA 10 ng/mL. On the procedure:
MMP-9 activity in HT1080 cells was assayed by gelatin zymography as described previously. For this, approximately 2×10^5 cells/mL HT1080 cells in serum free DMEM medium were seeded in 24-well plates and pre-treated with different concentrations of CGlc for 1 h. MMP-9 expression was stimulated by treatment of PMA (10 ng/mL) and cells were cultured for 48 h. Cell conditioned medium was subjected to substrate gel electrophoresis. Similar amount of protein containing conditioned media were applied without reduction to a 10% (w/v) polyacrylamide gel impregnated with 1 mg/mL gelatin. After electrophoresis, gel was washed in 50 mM Tris-HCl (pH 7.5) containing 2.5% Triton X-100 at room temperature and incubated overnight at 37° C. in zymography developing buffer containing 10 mM CaCI2, 50 mM Tris-HCl, and 150 mM NaCl. The gel was then stained with a […]. In this assay clear zones against the blue background indicate the presence of gelatinolytic activity.
The image of the gel was recorded using Fujifilm Image Reader LAS-3000 software in Science Image System, LAS 3000 (Fujifilm Life Science, Tokyo, Japan). The gelatinolytic activities were quantified using Multi Gauge V3.0 software.
To analyze the inhibition of MMP-9 mediated gelatinolytic activity in conditioned medium stimulated with PMA, we utilized human fibrosarcoma cell line, HT1080. […]

The next data set relates to HT1080 cells. The experiment in a line: MTT cell viability (cytotoxicity) assay. The note with it: even at 1 mg/mL, 24 h, in the presence and absence of FBS. The method, then:
Equal number of HT1080 cells (4000 cells per well) cultured in 96-well plates with serum and serum free media were treated with various concentrations of CGlc for 24 h. Cell viability was then evaluated with the 3-(4,5-dimethyl[…])-2,5-diphenyltetrazolium bromide (MTT) spectrophotometrically (GENios® microplate reader, Tecan Austria GmbH, Austria) which measures conversion of tetrazolium salt in to blue formazan by viable cells.

The test system of data set [2] is MMP-9. The experiment in a line: Fluorescence conjugated gelatin digestion assay on conditioned medium of PMA-stimulated HT1080 cells. On the procedure: HT1080 cells grown in 24-well plates were treated with different concentrations of CGlc and conditioned media were collected by centrifugation at 13 000×g following PMA (10 ng/mL) treatment. Enzyme activities of conditioned media in 50 mmol/l Tris-HCl buffer (pH 7.5), 0.15 mol/l NaCl, 10 mmol/l CaCl2, 0.02% NaN3 (TNC buffer) containing 0.05% Brij 35 were determined using fluorescence conjugated gelatin peptide (Collagen Technology Corporation, Tokyo, Japan) as the substrate.
Fluoropeptides were incubated with conditioned media at 37° C. for 20 h, and the reaction was terminated by addition of 3% acetic acid. Fluorescence intensity was measured at 495 nm (excitation) and 520 nm (emission) with a GENios® fluorescence microplate reader (Tecan Austria GmbH, Austria).
The MMP-9 inhibitory effect of CGlC on MMP-9 activity stimulated by PMA in HT1080 cells was further confirmed using more sensitive fluorescence conjugated gelatin digestion assay which use fluorescence conjugated gelatin peptides as the substrate for MMP-9. The amount of active gelatinases (MMP-9/-2) present in CGIc treated stimulated conditioned medium obtained from incubation of HT1080 cells was assesssed from the resulting fluorescence activity. […] Therefore it can be presumed that difference in fluorescence intensities were mainly due to activity of MMP-9. […]

The test system of the next data set is MMP-9 promoter. The experiment in a line: MMP-9 promoter luciferase reporter assay in transfected HT1080 cells. The note with it: PMA-stimulated transfected HT1080 cells. On the procedure: (§1) HT1080 cells cultured in 10 cm culture dishes were transiently transfected with MMP-9 promoter containing pGL3 luciferase reporter vector (Promega, Madison, Wis.) or AP-1 binding site containing luciferase reporter plasmid (Colontech, Palo Alto, […]) by Lipofectamine™ 2000™ reagent (Invitrogen). Beta-galactosidase expression vector co-transfected with the reporter vector to serve as an internal control of transfection efficiency. Transfected cells sub-cultured in 24-well plates were treated with different concentrations of CGlc. Following stimulation with PMA cells were cultured for 24 h. Cells were washed once with cold PBS and lysed with 200 μl/well lysis buffer (25 mM Tri-HCl, pH 8.0, containing 2 mM DDT and 1% Triton-X 100). Aliquots of cell lysate and luciferase substrate (Promega) were mixed in equal amounts in a 96-well plate and luminescence intensity was measured with a luminescence microplate reader (Tecan Austria GmbH, Austria). Beta-galactosidase activity was measured with ONPG buffer. The level of reporter gene expression was determined as a ratio, compared with cells stimulated by PMA (10 ng/mL) alone and represented as relative luciferase activity.
(§2) Transfection efficiency was determined by X-Gal staining method. Briefly, transfected cells were fixed with 0.5% glutaraldehyde and stained with X-Gal solution containing 20 mM K3Fe(CN)6, K4Fe(CN)6 and 1 mM MgCl2. […]

In another data set the test system is AP-1. The experiment in a line: AP-1 binding site luciferase reporter assay in transfected HT1080 cells. The following applies: 500 μg/mL CGlc, PMA-stimulated transfected HT1080 cells. The method, then:
as §1, §2
On the technique in general: In a reporter assay the amount or activity of a reporter protein is the signal.

This note sets out measurements from patent US20090240046A1, “CARBOXYLATED GLUCOSAMINE COMPOUNDS FOR INHIBITING THE ACTIVATION AND EXPRESSION OF MATRIX METALLOPROTEINASE-9 IN HUMAN FIBROSARCOMA CELLS AND MATRIX METALLOPROTEINASE-9 INHIBITORS CONTAINING THE SAME” (priority 2006, published 2009).

Take Carboxylated glucosamine [CGlc]: in the data set with MMP-9 [1], the “inhibition of MMP-9 lead gelatinolytic activity” value is listed as “approximately 60%”. In addition, in the data set with HT1080 cells, the “toxicity on HT1080 cells (MTT viability)” value is given as “did not show any toxicity”. Also, the “reduction of fluorescence intensity” value in the data set on MMP-9 [2] (100 μg/mL CGlc) was “about 50%”. The “decrease of relative fluorescence activity” value with MMP-9 [2] (500 μg/mL CGlc) is “up to 66%”. The “inhibition of MMP-9-luciferase reporter gene activity” value in the data set on MMP-9 promoter (100 μg/mL CGlc) is “Approximately 50%”; with MMP-9 promoter (500 μg/mL CGlc), “approximately 3 fold”. For the same substance, the “suppression of AP-1 reporter activity” value with AP-1 is 2-3 fold.
